Assay results: patent US11993584B2, “Solid forms of an azolopyrimidine compound” (ARCUS BIOSCIENCES, INC., priority 2018, dated 2024)
Each block holds one compound with its values, some of them ahead of it.

Experiments:
[1] = Solid-state stability of Form I under stress storage, analysis by HPLC and XRPD; assay type: physicochemical
Description: XRPD analysis was carried out on a PANalytical X'pert pro, scanning the samples between 3 and […] 2θ. The material was gently ground to release any agglomerates and loaded onto a multi-well plate with Kapton or Mylar polymer film to support the sample. The multi-well plate was then placed into the diffractometer and analyzed using Cu K radiation (α1λ=1.54060 Å; α2=1.54443 Å; β=1.39225 Å; α1: α2 ratio=0.5) running in transmission mode (step size 0.0130° 2θ) using 40 kV/40 mA generator settings.
• Instrument: Agilient 1100 • Column: Zorbax Eclipse Plus C18 150 mm×3.0 mm, 3.5 μm particle size • Column Temperature: 35° C. • Autosampler Temperature: Ambient • UV wavelength: 228 nm • Injection Volume: 3 μL • Flow Rate: 1 mL/min • Mobile Phase A: Water (0.1% formic acid in 95:5 water:ACN) • Mobile Phase B: ACN (0.1% formic acid) • Gradient program: […]
Vials containing a quantity of Form I of Compound I were subjected to a temperature of 40° C. at 75% relative humidity (RH) for one week. […] Additionally, vials containing a quantity of the crystalline material were subjected to a temperature of 80° C. in a closed vial for one week.

[2] = Dynamic vapor sorption (DVS) hygroscopicity; assay type: physicochemical
Description: Approximately 10 mg of sample was placed into a mesh vapor sorption balance pan and loaded into a DVS-1, DVS Intrinsic or DVS Advantage dynamic vapor sorption balance by Surface Measurement Systems. The sample was subjected to a ramping profile from 40-90% relative humidity (RH) at 10% increments, maintaining the sample at each step until a stable weight had been achieved (dm/dt 0.004%, minimum step length 30 min, maximum step length 500 min) at 25° C. After completion of the sorption cycle, the sample was dried using the same procedure to 0% RH and then a second sorption cycle back to 40% RH. Two cycles were performed. The weight change during the sorption/desorption cycles were plotted, allowing for the hygroscopic nature of the sample to be determined. XRPD analysis was then carried out on any solid retained.
A quantity of Compound I Form I was analyzed by dynamic vapor sorption (DVS). The sample was subjected to a ramping profile from 40-90% RH at 10% increments, maintaining the sample at each step until a stable weight had been achieved at 25° C. After completion of the sorption cycle, the sample was dried using the same procedure to 0% RH and then a second sorption cycle back to 40% RH. Two cycles were performed. The weight change during the sorption/desorption cycles were plotted, allowing for the hygroscopic nature of the sample to be determined.

[3] = Competitive 1:1 slurry experiments of the two forms; assay type: physicochemical; details: 1:1 slurry of Form I and Form III, variety of solvents
[4] = Qualitative dissolution of amorphous Compound I in solvents; assay type: physicochemical; details: 40 mg sample
Description: Amorphous Compound I was produced by dissolving Compound I in 1,4-dioxane and subsequent lyophilization. The amorphous solid form was confirmed by the lack of indicative peaks by XRPD. To the amorphous Compound I, solvent was added to the 12×40 mg samples to prepare slurries for thermal cycling. The material was readily soluble in many of the 12 solvents and therefore, several of the samples were thermally cycled as saturated solutions.

A2AR = A2AR (Homo sapiens, UniProt P29274); details: antagonist; has been reported (U.S. Ser. No. 15/875,106, PCT/US18/14352); cited from earlier work
Chain of A2AR (P29274 whole entry): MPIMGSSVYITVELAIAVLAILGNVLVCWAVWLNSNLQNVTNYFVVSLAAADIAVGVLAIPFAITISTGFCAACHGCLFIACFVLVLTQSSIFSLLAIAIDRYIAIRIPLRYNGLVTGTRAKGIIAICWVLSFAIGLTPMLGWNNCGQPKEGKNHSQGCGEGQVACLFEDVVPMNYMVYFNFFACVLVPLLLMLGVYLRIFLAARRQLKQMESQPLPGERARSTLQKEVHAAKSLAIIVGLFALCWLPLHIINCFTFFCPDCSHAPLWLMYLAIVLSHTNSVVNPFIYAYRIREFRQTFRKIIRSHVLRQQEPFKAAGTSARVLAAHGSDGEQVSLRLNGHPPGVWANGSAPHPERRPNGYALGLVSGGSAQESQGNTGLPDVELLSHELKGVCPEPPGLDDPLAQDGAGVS

A2BR = target: T1, A2BR (Homo sapiens, UniProt P29275); details: antagonist; has been reported (U.S. Ser. No. 15/875,106, PCT/US18/14352); cited from earlier work
T1 sequence (P29275 1-332): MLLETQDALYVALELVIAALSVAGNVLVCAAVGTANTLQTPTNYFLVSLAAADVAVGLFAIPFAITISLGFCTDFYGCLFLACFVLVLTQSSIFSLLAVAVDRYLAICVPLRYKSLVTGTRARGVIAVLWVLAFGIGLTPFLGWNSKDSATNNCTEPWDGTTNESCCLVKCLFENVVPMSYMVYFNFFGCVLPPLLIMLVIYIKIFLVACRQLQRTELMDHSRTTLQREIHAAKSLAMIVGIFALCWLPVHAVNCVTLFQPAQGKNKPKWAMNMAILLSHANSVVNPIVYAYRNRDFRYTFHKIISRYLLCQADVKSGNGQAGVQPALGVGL

hygroscopic nature ([2]; DVS, 25° C.): slightly hygroscopic | XRPD analysis of resultant solid after DVS ([2]; after two sorption/desorption cycles): no change in morphology observed | maximum absorption of water (DVS) ([2]; at 90% relative humidity, 25° C., 0-90% RH range, reversible): 1.1% | hysteresis upon cycling (DVS) ([2]; two cycles, 0-90% RH): No hysteresis was observed
Compound: Cc1c(C#N)cccc1-c1cc(-c2cn(Cc3cccc(C(C)(C)O)n3)nn2)nc(N)n1 [Form I of Compound I, 3-[2-amino-6-(1-{[6-(2-hydroxypropan-2-yl)pyridin-2-yl]methyl}-1H-1,2,3-triazol-4-yl)pyrimidin-4-yl]-2-methylbenzonitrile]
stability (decomposition, morphology change) by HPLC and XRPD ([1]; 40° C. at 75% relative humidity (RH) for one week): stable with no decomposition or morphology change observed | stability (decomposition, morphology change) by HPLC and XRPD ([1]; 80° C. in a closed vial for one week): stable with no decomposition or change in morphology observed

form conversion in competitive slurry [3]: converted to Form I
Compound: Cc1c(C#N)cccc1-c1cc(-c2cn(Cc3cccc(C(C)(C)O)n3)nn2)nc(N)n1 [Form III, 3-[2-amino-6-(1-{[6-(2-hydroxypropan-2-yl)pyridin-2-yl]methyl}-1H-1,2,3-triazol-4-yl)pyrimidin-4-yl]-2-methylbenzonitrile]

Slurry or Solution ([4]; 1,4-Dioxane, 200 μL): Solution | Slurry or Solution ([4]; 2-Ethoxyethanol, 200 μL): solution | Slurry or Solution ([4]; 25% Acetone/75% water, 200 μL): Solution | Slurry or Solution ([4]; 25% MeCN/75% water, 300 μL): Slurry | Slurry or Solution ([4]; Isopropanol, 400 μL): Slurry | Slurry or Solution ([4]; Isopropyl acetate, 200 μL): Solution | Slurry or Solution ([4]; Methanol, 200 μL): Solution | Slurry or Solution ([4]; THF, 200 μL): Solution | Slurry or Solution ([4]; Toluene, 700 μL): Slurry | Slurry or Solution ([4]; acetonitrile, 400 μL): Slurry | Slurry or Solution ([4]; dichloromethane, 200 μL): Solution | Slurry or Solution ([4]; water, 700 μL): slurry
Compound: Cc1c(C#N)cccc1-c1cc(-c2cn(Cc3cccc(C(C)(C)O)n3)nn2)nc(N)n1 [amorphous Compound I, 3-[2-amino-6-(1-{[6-(2-hydroxypropan-2-yl)pyridin-2-yl]methyl}-1H-1,2,3-triazol-4-yl)pyrimidin-4-yl]-2-methylbenzonitrile]

Compound: Cc1c(C#N)cccc1-c1cc(-c2cn(Cc3cccc(C(C)(C)O)n3)nn2)nc(N)n1 [Compound I, 3-[2-amino-6-(1-{[6-(2-hydroxypropan-2-yl)pyridin-2-yl]methyl}-1H-1,2,3-triazol-4-yl)pyrimidin-4-yl]-2-methylbenzonitrile]
potency on A2AR (A2AR): less than 10 nM | potency on A2BR (A2BR): less than 10 nM
